According to patent US20240199647A1, “ANTI-VIRAL COMPOUNDS” (Aligos Therapeutics, Inc., priority 2022, published 2024):
Like-named read-outs stand apart in the source and are kept apart here.

Columns and labels:
SARS-Cov-2 3CLpro = SARS-Cov-2 3CLpro (Severe acute respiratory syndrome coronavirus 2, UniProt P0DTD1); assay: biochemical; conditions: Table A, class symbols, read-out: SARS-Cov-2 (IC50)
[1] = test system: human beta-coronavirus OC43; assay: OC43 Coronavirus Assay in HeLa cells (antiviral, cytopathic effect, cell-titer-glo); type: cell-based; conditions: Betacoronavirus 1, OC43, HeLa, Table B; OC43 coronavirus in HeLa cells, class symbols; read-out: EC50
[2] = test system: SARS-CoV-2 B.1.1.7 lineage; assay: microbe, parasite or virus in culture; type: cell-based; conditions: Severe acute respiratory syndrome coronavirus 2, Table C, SARS-CoV-2 B.1.1.7 in A549-dual_ACE2_TMPRSS2 cells, read-out: A549-dual_ACE2_TMPRSS2 (EC50)
in vitro = conditions: human
[3] = Cytotoxicity in HeLa cells without addition of OC43 virus (in parallel); conditions: human, HeLa cells, without OC43 virus

SMILES	IC50 (SARS-Cov-2 3CLpro)	EC50 [1]	EC50 ([2]; class symbols)	CC50 (in vitro)	CC50 at 6 days [3]	EC50 ([2]; cells given as a bound)
CN(C(=O)[C@H](CC1CC1)NC(=O)C(F)(F)F)[C@@H](CC1CC1)C(=O)N1C[C@@]2(C[C@H]1C#N)Oc1c(F)cc(F)cc1CNC2=O [Compound 199]	< 20 nM	< 100 nM	100 to 1000 nM	> 1000 nM	> 10000 nM	–
CN(C(=O)[C@@H](Cc1ccc(F)cc1)NC(=O)C(F)(F)F)[C@@H](CC1CC1)C(=O)N1C[C@@]2(C[C@H]1C#N)Oc1cccnc1NC2=O [Compound 200]	< 20 nM	100 to 1000 nM	< 100 nM	> 1000 nM	> 10000 nM	–
CN(C(=O)[C@@H](NC(=O)C(F)(F)F)C1CC(F)(F)C1)[C@@H](CC1CC1)C(=O)N1C[C@@]2(C[C@H]1C#N)Oc1cccnc1NC2=O [Compound 201]	20 to 200 nM	100 to 1000 nM	100 to 1000 nM	> 1000 nM	> 10000 nM	–
CN(C(=O)[C@H](COc1ccccc1)NC(=O)C(F)(F)F)[C@@H](CC1CC1)C(=O)N1C[C@@]2(C[C@H]1C#N)Oc1cccnc1NC2=O [Compound 202]	< 20 nM	100 to 1000 nM	–	> 1000 nM	> 10000 nM	> 1000 nM
CN(C(=O)[C@H](CC1CCC1)NC(=O)C(F)(F)F)[C@@H](CC1CC1)C(=O)N1C[C@@]2(C[C@H]1C#N)Oc1ncccc1NC2=O [Compound 203]	< 20 nM	< 100 nM	< 100 nM	> 1000 nM	> 10000 nM	–
CN(C(=O)[C@H](CC(C)(C)C)NC(=O)C(F)(F)F)[C@@H](CC1CC1)C(=O)N1C[C@@]2(C[C@H]1C#N)Oc1ncccc1NC2=O [Compound 204]	< 20 nM	< 100 nM	< 100 nM	> 1000 nM	> 10000 nM	–
CN(C(=O)[C@@H](Cc1ccc(F)cc1)NC(=O)C(F)(F)F)[C@@H](CC1CC1)C(=O)N1C[C@@]2(C[C@H]1C#N)Oc1ncccc1NC2=O [Compound 205]	< 20 nM	< 100 nM	< 100 nM	> 1000 nM	> 10000 nM	–
CN(C(=O)[C@H](CC1(C)CCC1)NC(=O)C(F)(F)F)[C@@H](CC1CC1)C(=O)N1C[C@@]2(C[C@H]1C#N)Oc1ncccc1NC2=O [Compound 206]	< 20 nM	< 100 nM	< 100 nM	> 1000 nM	> 10000 nM	–
CN(C(=O)[C@H](CC1CC1)NC(=O)C(F)(F)F)[C@@H](CC1CC1)C(=O)N1C[C@@]2(C[C@H]1C#N)Oc1cc(F)cc(F)c1CNC2=O [Compound 207]	20 to 200 nM	< 100 nM	< 100 nM	> 1000 nM	> 10000 nM	–
CN(C(=O)c1ncc(-c2ccccc2)[nH]1)[C@@H](CC1CC1)C(=O)N1C[C@@]2(C[C@H]1C#N)Oc1cccnc1NC2=O [Compound 208]	20 to 200 nM	100 to 1000 nM	100 to 1000 nM	> 1000 nM	> 10000 nM	–
C[C@H](NC(=O)C(F)(F)F)C(=O)N(C)[C@@H](CC1CC1)C(=O)N1C[C@@]2(C[C@H]1C#N)Oc1ncccc1NC2=O [Compound 209]	< 20 nM	< 100 nM	100 to 1000 nM	> 1000 nM	> 10000 nM	–
COC(=O)N[C@@H](C)C(=O)N(C)[C@@H](CC1CC1)C(=O)N1C[C@@]2(C[C@H]1C#N)Oc1cccnc1NC2=O [Compound 213]	< 20 nM	< 100 nM	100 to 1000 nM	> 1000 nM	> 10000 nM	–
COC(=O)N[C@@H](CC1CC1)C(=O)N(C)[C@@H](CC1CC1)C(=O)N1C[C@@]2(C[C@H]1C#N)Oc1ncccc1NC2=O [Compound 214]	< 20 nM	< 100 nM	100 to 1000 nM	> 1000 nM	> 10000 nM	–
CN(C(=O)[C@H](CC1(C)CC1)NC(=O)C(F)(F)F)[C@@H](CC1(C)CC1)C(=O)N1C[C@@]2(C[C@H]1C#N)Oc1cccnc1NC2=O [Compound 215]	< 20 nM	< 100 nM	< 100 nM	> 1000 nM	> 10000 nM	–
C[C@H](NC(=O)OC1CC1)C(=O)N(C)[C@@H](CC1CC1)C(=O)N1C[C@@]2(C[C@H]1C#N)Oc1cccnc1NC2=O [Compound 219]	< 20 nM	< 100 nM	100 to 1000 nM	> 1000 nM	> 10000 nM	–
CCOC[C@H](NC(=O)C(F)(F)F)C(=O)N(C)[C@@H](CC1CC1)C(=O)N1C[C@@]2(C[C@H]1C#N)Oc1cccnc1NC2=O [Compound 220]	< 20 nM	< 100 nM	100 to 1000 nM	> 1000 nM	> 10000 nM	–
CC1NC(=O)[C@]2(C[C@@H](C#N)N(C(=O)[C@H](CC3CC3)N(C)C(=O)[C@H](CC3CC3)NC(=O)C(F)(F)F)C2)Oc2ccccc21 (stereo partly drawn) [Compound 222, (2S)—N-((2S)-1-((2R,5'S)-5′-cyano-5-methyl-3-oxo-4,5-dihydro-3H-spiro[benzo[f][1,4]oxazepine-2,3′-pyrrolidin]-1′-yl)-3-cyclopropyl-1-oxopropan-2-yl)-3-cyclopropyl-N-methyl-2-(2,2,2-trifluoroacetamido)propanamide]	< 20 nM	< 100 nM	< 100 nM	> 1000 nM	> 10000 nM	–
COC1CNC(=O)[C@]12C[C@@H](C#N)N(C(=O)[C@H](CC1CC1)N(C)C(=O)[C@H](CC1CC1)NC(=O)C(F)(F)F)C2 (stereo partly drawn) [Compound 225, (2S)—N-((2S)-1-((3S,5S)-3-cyano-9-methoxy-6-oxo-2,7-diazaspiro[4.4]nonan-2-yl)-3-cyclopropyl-1-oxopropan-2-yl)-3-cyclopropyl-N-methyl-2-(2,2,2-trifluoroacetamido)propanamide]	20 to 200 nM	100 to 1000 nM	100 to 1000 nM	> 1000 nM	> 10000 nM	–
CN(C(=O)C(=O)Nc1ccc(F)cc1)[C@@H](CC1CC1)C(=O)N1C[C@@]2(C[C@H]1C#N)Oc1cccnc1NC2=O [Compound 226, N^1—((S)-1-((2R,5'S)-5′-cyano-3-oxo-3,4-dihydrospiro[pyrido[3,2-b][1,4]oxazine-2,3′-pyrrolidin]-1′-yl)-3-cyclopropyl-1-oxopropan-2-yl)-N^2-(4-fluorophenyl)-N^1-methyloxalamide]	200 to 2000 nM	1000 to 10000 nM	–	> 1000 nM	> 10000 nM	> 1000 nM
Cc1ccc2c(n1)O[C@@]1(C[C@@H](C#N)N(C(=O)[C@H](CC3CC3)N(C)C(=O)[C@H](CC3CC3)NC(=O)C(F)(F)F)C1)C(=O)N2 [Compound 227, (S)—N—((S)-1-((3R,5'S)-5′-cyano-6-methyl-2-oxo-1,2-dihydrospiro[pyrido[2,3-b][1,4]oxazine-3,3′-pyrrolidin]-1′-yl)-3-cyclopropyl-1-oxopropan-2-yl)-3-cyclopropyl-N-methyl-2-(2,2,2-trifluoroacetamido)propanamide]	< 20 nM	< 100 nM	100 to 1000 nM	> 1000 nM	> 10000 nM	–
CN(C(=O)[C@H](CC1CC1)NC(=O)C(F)(F)F)[C@@H](CC1CC1)C(=O)N1C[C@@]2(C[C@H]1C#N)Oc1ccccc1C(C)(C)NC2=O [Compound 228]	20 to 200 nM	100 to 1000 nM	100 to 1000 nM	> 1000 nM	> 10000 nM	–
Cc1ccc2c(n1)NC(=O)[C@]1(C[C@@H](C#N)N(C(=O)[C@H](CC3CC3)N(C)C(=O)[C@H](C)NC(=O)C(F)(F)F)C1)O2 [Compound 229, (S)—N—((S)-1-((2R,5'S)-5′-cyano-6-methyl-3-oxo-3,4-dihydrospiro[pyrido[3,2-b][1,4]oxazine-2,3′-pyrrolidin]-1′-yl)-3-cyclopropyl-1-oxopropan-2-yl)-N-methyl-2-(2,2,2-trifluoroacetamido)propanamide]	< 20 nM	< 100 nM	100 to 1000 nM	> 1000 nM	> 10000 nM	–
CC(C)C[C@@H](C(=O)N1C[C@@]2(C[C@H]1C#N)Oc1ccccc1NC2=O)N(C)C(=O)[C@H](C)NC(=O)C(F)(F)F [Example 1, (S)—N—((S)-1-((2R,5′S)-5′-cyano-3-oxo-3,4-dihydrospiro[benzo[b][1,4]oxazine-2,3′-pyrrolidin]-1′-yl)-4-methyl-1-oxopentan-2-yl)-N-methyl-2-(2,2,2-trifluoroacetamido)propanamide]	< 20 nM	< 100 nM	< 100 nM	> 1000 nM	> 10000 nM	–
CC(C)C[C@@H](C(=O)N1C[C@@]2(C[C@H]1C#N)Oc1ccccc1NC2=O)N(C)C(=O)c1cc2c(F)cc(F)cc2[nH]1 [Example 2, N—((S)-1-((2R,5'S)-5′-cyano-3-oxo-3,4-dihydrospiro[benzo[b][1,4]oxazine-2,3′-pyrrolidin]-1′-yl)-4-methyl-1-oxopentan-2-yl)-4,6-difluoro-N-methyl-1H-indole-2-carboxamide]	< 20 nM	100 to 1000 nM	100 to 1000 nM	> 1000 nM	> 10000 nM	–
